target: hMCH-1R (Homo sapiens (Human), UniProt Q99705); test: MCH-1 receptor binding test (125I-MCH binding to hMCH-1R transfected cell membranes); conditions: 125I-MCH on hMCH-1R membranes; read-out: KD value of the radioligand
Experimental: Res Commun. […] After the incubation the reaction is filtered using a cell harvester through 0.5% PEI treated fibreglass filters (GF/B, Unifilter Packard). The membrane-bound radioactivity retained on the filter is then determined after the addition of scintillator substance (Packard Microscint 20) in a measuring device (TopCount of Packard). […] The analysis of the concentration binding curve is carried out on the assumption of one receptor binding site.

hMCH-1R, sequence (Q99705 whole entry): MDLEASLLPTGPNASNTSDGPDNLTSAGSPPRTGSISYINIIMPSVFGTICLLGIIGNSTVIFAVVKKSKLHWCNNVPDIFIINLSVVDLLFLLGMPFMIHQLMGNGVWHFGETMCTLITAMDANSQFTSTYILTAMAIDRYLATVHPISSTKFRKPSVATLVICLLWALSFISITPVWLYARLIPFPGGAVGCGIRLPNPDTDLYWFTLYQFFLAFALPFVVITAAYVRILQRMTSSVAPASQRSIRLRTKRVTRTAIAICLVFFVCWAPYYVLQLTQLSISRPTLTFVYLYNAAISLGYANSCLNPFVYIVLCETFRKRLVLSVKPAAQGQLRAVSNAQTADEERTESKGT

| SMILES | Kd [µM] |
| --- | --- |
| CSCC[C@@H]1NC(=O)[C@@H](NC(=O)[C@H](CCCNC(=N)N)NC(=O)[C@H](CC(C)C)NC(=O)[C@H](CCSC)NC(=O)[C@H](CC(=O)O)NC(=O)[C@H](Cc2ccccc2)NC(=O)[C@@H](N)CC(=O)O)CSSC[C@@H](C(=O)N[C@@H](Cc2c[nH]c3ccccc23)C(=O)N[C@@H](CCC(N)=O)C(=O)N[C@H](C(=O)O)C(C)C)NC(=O)[C@@H]2CCCN2C(=O)[C@H](CCCNC(=N)N)NC(=O)[C@H](Cc2ccc(O)c(I)c2)NC(=O)[C@H](C(C)C)NC(=O)[C@H](CCCNC(=N)N)NC(=O)CNC(=O)[C@H](CC(C)C)NC1=O [^125I-MCH, reference compound] | 0.000156 |

same assay, conditions: competition with 100 pM 125I-MCH, membranes of CHO/Galpha16 cells stably transfected with hMCH-1R

| SMILES | IC50 [µM] |
| --- | --- |
| Cc1cc(CN2CCC(O)CC2)ccc1C(=O)Cn1ncc(OCc2ccc(Cl)cn2)cc1=O [Example 7.14, 5-(5-Chloro-pyridin-2-ylmethoxy)-2-{2-[4-(4-hydroxy-piperidin-1-ylmethyl)-2-methyl-phenyl]-2-oxo-ethyl}-2H-pyridazin-3-one] | 0.03 |
| Cc1cc(CN2CCCC2)ccc1C(=O)Cn1ncc(OCc2ccc(Cl)cn2)cc1=O [Example 7.15, 5-(5-Chloro-pyridin-2-ylmethoxy)-2-[2-(2-methyl-4-pyrrolidin-1-ylmethyl-phenyl)-2-oxo-ethyl]-2H-pyridazin-3-one] | 0.019 |
| Cc1cc(CN(C)C)ccc1C(=O)Cn1ncc(OCc2ccc(Cl)cn2)cc1=O [Example 7.16, 5-(5-Chloro-pyridin-2-ylmethoxy)-2-[2-(4-dimethylaminomethyl-2-methyl-phenyl)-2-oxo-ethyl]-2H-pyridazin-3-one] | 0.024 |
| Cc1cc(CN2CCNCC2)ccc1C(=O)Cn1ncc(OCc2ccc(Cl)cn2)cc1=O [Example 7.17, 5-(5-Chloro-pyridin-2-ylmethoxy)-2-[2-(2-methyl-4-piperazin-1-ylmethyl-phenyl)-2-oxo-ethyl]-2H-pyridazin-3-one] | 0.083 |
| Cc1cc(CN2CC[C@@H](O)C2)ccc1C(=O)Cn1ncc(OCc2ccc(Br)cn2)cc1=O [Example 8.1, (R)-5-(5-Bromo-pyridin-2-ylmethoxy)-2-{2-[4-(3-hydroxy-pyrrolidin-1-ylmethyl)-2-methyl-phenyl]-2-oxo-ethyl}-2H-pyridazin-3-one] | 0.022 |
| Cc1cc(CN2CC(O)C2)ccc1C(=O)Cn1ncc(OCc2ccc(Br)cn2)cc1=O [Example 8.2, 5-(5-Bromo-pyridin-2-ylmethoxy)-2-{2-[4-(3-hydroxy-azetidin-1-ylmethyl)-2-methyl-phenyl]-2-oxo-ethyl}-2H-pyridazin-3-one] | 0.019 |
| Cc1cc(CN2CCC[C@H](O)C2)ccc1C(=O)Cn1ncc(OCc2ccc(Br)cn2)cc1=O [Example 8.4] | 0.024 |
| Cc1cc(CN2CCC(C)(O)C2)ccc1C(=O)Cn1ncc(OCc2ccc(Br)cn2)cc1=O (stereo not shown) [Example 8.5] | 0.018 |
| Cc1cc(CN2CCC[C@@H](O)C2)ccc1C(=O)Cn1ncc(OCc2ccc(Br)cn2)cc1=O [Example 8.6, (R)-5-(5-Bromo-pyridin-2-ylmethoxy)-2-{2-[4-(3-hydroxy-piperidin-1-ylmethyl)-2-methyl-phenyl]-2-oxo-ethyl}-2H-pyridazin-3-one] | 0.021 |
| Cc1cc(CN2CCCC[C@@H]2CO)ccc1C(=O)Cn1ncc(OCc2ccc(Br)cn2)cc1=O [Example 8.7, (R)-5-(5-Bromo-pyridin-2-ylmethoxy)-2-{2-[4-(2-hydroxymethyl-piperidin-1-ylmethyl)-2-methyl-phenyl]-2-oxo-ethyl}-2H-pyridazin-3-one] | 0.02 |
| CCNCc1ccc(C(=O)Cn2ncc(OCc3ccc(Br)cn3)cc2=O)c(C)c1 [Example 8.8, 5-(5-Bromo-pyridin-2-ylmethoxy)-2-[2-(4-ethylaminomethyl-2-methyl-phenyl)-2-oxo-ethyl]-2H-pyridazin-3-one] | 0.017 |
| Cc1cc(CN2CCC(O)CC2)ccc1C(=O)Cn1ncc(OCc2ccc(Br)cn2)cc1=O [Example 8.9, 5-(5-Bromo-pyridin-2-ylmethoxy)-2-{2-[4-(4-hydroxy-piperidin-1-ylmethyl)-2-methyl-phenyl]-2-oxo-ethyl}-2H-pyridazin-3-one] | 0.018 |
| CNCc1ccc(C(=O)Cn2ncc(OCc3ccc(Br)cn3)cc2=O)c(C)c1 [Example 8.10, 5-(5-Bromo-pyridin-2-ylmethoxy)-2-[2-(2-methyl-4-methylaminomethyl-phenyl)-2-oxo-ethyl]-2H-pyridazin-3-one] | 0.025 |
| Cc1cc(CN2CCC[C@H]2CO)ccc1C(=O)Cn1ncc(OCc2ccc(Br)cn2)cc1=O [Example 8.11] | 0.021 |
| COc1ccc(COc2cnn(CC(=O)c3ccc(CN4CCC(O)CC4)cc3C)c(=O)c2)nc1 [Example 9.2, 2-{2-[4-(4-Hydroxy-piperidin-1-ylmethyl)-2-methyl-phenyl]-2-oxo-ethyl}-5-(5-methoxy-pyridin-2-ylmethoxy)-2H-pyridazin-3-one] | 0.034 |
| COc1ccc(COc2cnn(CC(=O)c3ccc(CN4CCCC4)cc3C)c(=O)c2)nc1 [Example 9.3, 5-(5-Methoxy-pyridin-2-ylmethoxy)-2-[2-(2-methyl-4-pyrrolidin-1-ylmethyl-phenyl)-2-oxo-ethyl]-2H-pyridazin-3-one] | 0.025 |
| CNCc1ccc(C(=O)Cn2ncc(OCc3ccc(OC)cn3)cc2=O)c(C)c1 [Example 9.4, 5-(5-Methoxy-pyridin-2-ylmethoxy)-2-[2-(2-methyl-4-methylaminomethyl-phenyl)-2-oxo-ethyl]-2H-pyridazin-3-one] | 0.02 |
| CCNCc1ccc(C(=O)Cn2ncc(OCc3ccc(OC)cn3)cc2=O)c(C)c1 [Example 9.5, 2-[2-(4-Ethylaminomethyl-2-methyl-phenyl)-2-oxo-ethyl]-5-(5-methoxy-pyridin-2-ylmethoxy)-2H-pyridazin-3-one] | 0.024 |
| COc1ccc(COc2cnn(CC(=O)c3ccc(C(C)N(C)C)cc3C)c(=O)c2)nc1 (stereo not shown) [Example 10.1, 2-{2-[4-(1-Dimethylamino-ethyl)-2-methyl-phenyl]-2-oxo-ethyl}-5-(5-methoxy-pyridin-2-ylmethoxy)-2H-pyridazin-3-one] | 0.02 |
| CNC(C)c1ccc(C(=O)Cn2ncc(OCc3ccc(OC)cn3)cc2=O)c(C)c1 (stereo not shown) [Example 10.2, 5-(5-Methoxy-pyridin-2-ylmethoxy)-2-{2-[2-methyl-4-(1-methylamino-ethyl)-phenyl]-2-oxo-ethyl}-2H-pyridazin-3-one] | 0.022 |
| COc1ccc(COc2ccn(CC(=O)c3ccc(CN4CCC(O)CC4)cc3C)c(=O)c2)nc1 [Example 11.1, 1-{2-[4-(4-Hydroxy-piperidin-1-ylmethyl)-2-methyl-phenyl]-2-oxo-ethyl}-4-(5-methoxy-pyridin-2-ylmethoxy)-1H-pyridin-2-one] | 0.053 |
| COc1ccc(COc2ccn(CC(=O)c3ccc(CN(C)C)cc3C)c(=O)c2)nc1 [Example 11.2] | 0.057 |
| COc1ccc(COc2ccn(CC(=O)c3ccc(CN4CCCC4)cc3C)c(=O)c2)nc1 [Example 11.3] | 0.026 |
| CCNCc1ccc(C(=O)Cn2ccc(OCc3ccc(OC)cn3)cc2=O)c(C)c1 [Example 11.4] | 0.054 |
